In this assay the target is T1, nitrile hydratase (Pseudomonas chlororaphis, UniProt P27763+P27764).
T1 sequence (P27764 1-200): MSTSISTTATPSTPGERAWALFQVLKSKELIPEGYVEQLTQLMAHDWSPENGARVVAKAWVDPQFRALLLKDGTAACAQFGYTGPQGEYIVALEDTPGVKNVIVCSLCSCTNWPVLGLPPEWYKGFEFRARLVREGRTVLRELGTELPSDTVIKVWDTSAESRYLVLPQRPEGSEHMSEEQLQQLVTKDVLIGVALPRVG
T1 sequence (P27763 1-220): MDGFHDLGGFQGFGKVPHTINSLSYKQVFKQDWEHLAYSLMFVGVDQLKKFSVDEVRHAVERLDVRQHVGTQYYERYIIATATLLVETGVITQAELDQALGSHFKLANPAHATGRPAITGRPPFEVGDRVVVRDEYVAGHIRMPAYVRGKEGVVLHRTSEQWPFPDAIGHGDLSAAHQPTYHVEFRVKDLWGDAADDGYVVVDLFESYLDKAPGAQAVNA
In words: Preservation of nitrile hydration activity of washed cell suspension left standing ice-cooled with stabilizer. In kind it is cell-based, Pseudomonas chlororaphis B23 (FERM BP-187).

[1] abbreviates: 120 h; Table 1; 10 mg nitrile in 5 ml cell suspension, pH 6.5, left standing 5 days ice-cooled; no stabilizer: 42; read-out: % Residual Activity.
Setting [2] is: 120 h; Table 3; 10 mg organic acid in 5 ml cell suspension, pH 6.0, left standing 5 days ice-cooled; no stabilizer: 43; read-out: % Residual Activity.
Where [3] appears, read: 120 h, pH 6, read-out: % Residual Activity.
The mark [4] stands for this setting: 96 h, pH 5.5, read-out: % Residual Activity.
[5] abbreviates: 96 h, pH 7, read-out: % Residual Activity.
Setting [6] is: pH 6, read-out: % Residual Activity.
Where [7] appears, read: 120 h; Table 2; 10 mg amide in 5 ml cell suspension, pH 6.5, left standing 5 days ice-cooled; no stabilizer: 42; read-out: % Residual Activity.
The mark [8] stands for this setting: 120 h, pH 6.5, read-out: % Residual Activity.
The mark [9] stands for this setting: 96 h; Table 4; pH 5.0, 25 mg stabilizer in 5 ml, 4 days ice-cooled; no stabilizer: 2; read-out: % Residual Activity.
[10] abbreviates: 96 h; Table 4; pH 6.0, 25 mg stabilizer in 5 ml, 4 days ice-cooled; no stabilizer: 41; read-out: % Residual Activity.
[11] abbreviates: 96 h; Table 4; pH 6.5, 25 mg stabilizer in 5 ml, 4 days ice-cooled; no stabilizer: 52; read-out: % Residual Activity.
The mark [12] stands for this setting: 96 h; Table 4; pH 8.0, 25 mg stabilizer in 5 ml, 4 days ice-cooled; no stabilizer: 26; read-out: % Residual Activity.
Where [13] appears, read: Table 5; stabilizer concentration 0.01 g/l, pH 6.0, 3 days ice-cooled; no stabilizer (pH 6.5): 52; read-out: % Residual Activity.

Read-outs that look alike come from different tables or passages of the source.

Regarding `CCCCC#N` [n-Valeronitrile], the activity at 10 mg under setting [1] was determined as 93%.
The same measure, in the same setting: the value for `N#CCCC#N` [Succiononitrile] was 81%.
For the compound `CCCCCC(=O)O` [Caproic acid], the activity at 10 mg under setting [2] is 83%.
`CCC#N` [Propionitrile]: the activity at 10 mg under setting [1] was found to be 90%.
With `O=C(O)CC(O)C(=O)O` (stereo not shown) [Malic acid], the activity at 10 mg under setting [2] stood at 81%.
With `CCC(=O)O` [Propionic acid], the activity at 10 mg under setting [3] amounted to 93%.
For the compound `CC(=O)O` [Acetic acid], the activity at 10 mg under setting [3] was determined as 77%.
For `C=CC(=O)O` [Acrylic acid], the activity at 10 mg under setting [2] stood at 70%.
On the same count and under the same terms, the value for `O=C(O)C(O)CO` (racemic) [DL-Glyceric acid] was 87%.
Turning to `CC(C)C(=O)O` [Isobutyric acid], the activity at 25 mg turned out to be 1% (96 h, pH 5, read-out: % Residual Activity); 100% under setting [4]; 100% (96 h, pH 6, read-out: % Residual Activity); 88% (96 h, pH 6.5, read-out: % Residual Activity); 78% under setting [5]; 49% (96 h, pH 8, read-out: % Residual Activity). Also, the activity at 10 mg under setting [3] was 97%. The remaining activity at 100 µg/mL under setting [6] came to 83%. In addition, the remaining activity at 1000 µg/mL under setting [6] is 100%. In addition, the remaining activity at 5000 µg/mL under setting [6] is 97%. Further, under setting [6], the remaining activity at 20000 µg/mL was determined as 95%. The remaining activity at 50000 µg/mL under setting [6] is 87%. For the setting “read-out: % Residual Activity”, the remaining activity at 10 µg/mL came to 80%.
For the compound `O=C(O)CC(O)(CC(=O)O)C(=O)O` [Citric acid], the activity at 10 mg under setting [2] came out at 77%.
For `NC(=O)CCC(N)=O` [Succindiamide], the activity at 10 mg under setting [7] is 68%.
Turning to `NC(=O)CCl` [Chloroacetamide], the activity at 10 mg under setting [8] was 71%.
Turning to `NCCC(N)=O` [β-Aminopropionamide], the activity at 10 mg under setting [7] amounted to 68%.
With `C=CC#N` [Acrylonitrile], the activity at 10 mg under setting [1] stood at 71%.
In the case of `CCCCCC#N` [n-Capronitrile], the activity at 10 mg under setting [1] came out at 89%.
Regarding `O=CO` [Formic Acid], the activity at 10 mg under setting [3] stood at 83%.
Regarding `NC(=O)CCCl` [β-Chloropropionamide], the activity at 10 mg under setting [7] is 71%.
`C=C(C)C(N)=O` [Methacrylamide]: the activity at 10 mg under setting [7] is 79%.
In the case of `NC(=O)CCO` [β-Hydroxypropionamide], the activity at 10 mg under setting [7] was found to be 74%.
Still for that read-out and setting: the value for `CCCC(N)=O` [n-Butyramide] was 89%.
Turning to `CCC(N)=O` [Propionamide], the activity at 10 mg under setting [7] came to 93%.
For the compound `NC(=O)CC(N)=O` [Malondiamide], under setting [7], the activity at 10 mg was 66%.
Regarding `CC#N` [Acetonitrile], the activity at 10 mg under setting [8] is 71%.
As to `NCC(N)=O` [Glycine amide], the activity at 10 mg under setting [7] was found to be 63%.
In the case of `O=C(O)CCl` [Monochloroacetic acid], the activity at 10 mg under setting [2] amounted to 70%.
For `N#CCCl` [Chloroacetonitrile], the activity at 10 mg under setting [1] was determined as 77%.
Take `N#CCCO` [β-Hydroxypropionitrile]: the activity at 10 mg under setting [1] stood at 84%.
Take `O=C(O)c1ccccc1` [Benzoic acid]: the activity at 10 mg under setting [2] came to 68%.
The same measure, in the same setting: the same measure for `O=C(O)CO` [Glycolic acid]: 77%.
Take `CC(O)C(N)=O` (stereo not shown) [Lactamide]: under setting [7], the activity at 10 mg turned out to be 70%.
Turning to `C=CC(N)=O` [Acrylamide], under setting [7], the activity at 10 mg came to 73%.
In the case of `O=C(O)CC(=O)C(=O)O` [Oxalacetic acid], under setting [2], the activity at 10 mg was 83%.
Consider `N#Cc1ccccc1` [Benzonitrile], for which the activity at 10 mg under setting [1] is 70%.
With `CCCCC(=O)O` [Valeric acid], the activity at 10 mg under setting [3] came to 84%.
`NCCC(=O)O` [β-Aminopropionic acid]: the activity at 10 mg under setting [3] turned out to be 71%.
For `O=C(O)CC(=O)O` [Malonic acid], the activity at 10 mg under setting [2] was found to be 63%.
For `C=C(C)C(=O)O` [Methacrylic acid], the activity at 10 mg under setting [2] amounted to 81%.
Take `N#CCCN` [β-Aminopropionitrile]: the activity at 10 mg under setting [1] stood at 70%.
Regarding `O=C(O)/C=C/C(=O)O` [Fumaric acid], the activity at 10 mg under setting [3] turned out to be 82%.
As to `N#CCCCl` [β-Chloropropionitrile], under setting [1], the activity at 10 mg worked out at 80%.
For the compound `N#CCN` [Glycine nitrile], under setting [1], the activity at 10 mg turned out to be 68%.
As for `CCCCC(N)=O` [n-Valeramide], the activity at 10 mg under setting [7] was 94%.
With `CC(C)C#N` [Isobutyronitrile], the activity at 25 mg is 98% under setting [4]; 5% under setting [9]; 97% under setting [10]; 85% under setting [11]; 80% (96 h; Table 4; pH 7.0, 25 mg stabilizer in 5 ml, 4 days ice-cooled; no stabilizer: 43; read-out: % Residual Activity); 53% under setting [12]. Moreover, the activity at 10 mg under setting [1] worked out at 95%. Under setting [13], the remaining activity at 10 µg/mL is 78%. For the same compound, the remaining activity at 100 µg/mL under setting [6] was found to be 85%. The remaining activity at 1000 µg/mL under setting [6] was determined as 98%. In addition, the remaining activity at 5000 µg/mL under setting [6] stood at 100%. The remaining activity at 20000 µg/mL under setting [6] is 91%.
With `CC(N)=O` [Acetamide], the activity at 10 mg under setting [7] turned out to be 67%.
Consider `NC(=O)c1ccccc1` [Benzamide], for which the activity at 10 mg under setting [7] turned out to be 65%.
Regarding `CC(C)C(N)=O` [Isobutyramide], the activity at 25 mg is 78% under setting [5]; 3% under setting [9]; 100% (96 h; Table 4; pH 5.5, 25 mg stabilizer in 5 ml, 4 days ice-cooled; no stabilizer: 32; read-out: % Residual Activity); 100% under setting [10]; 87% under setting [11]; 52% under setting [12]. In addition, the activity at 10 mg under setting [8] amounted to 99%. The remaining activity at 10 µg/mL under setting [13] worked out at 82%. Moreover, the remaining activity at 100 µg/mL (Table 5; stabilizer concentration 0.1 g/l, pH 6.0, 3 days ice-cooled; read-out: % Residual Activity) stood at 88%. The remaining activity at 1000 µg/mL (Table 5; stabilizer concentration 1.0 g/l, pH 6.0, 3 days ice-cooled; read-out: % Residual Activity) stood at 100%. Further, the remaining activity at 5000 µg/mL (Table 5; stabilizer concentration 5.0 g/l, pH 6.0, 3 days ice-cooled; read-out: % Residual Activity) was determined as 100%. The remaining activity at 20000 µg/mL (Table 5; stabilizer concentration 20 g/l, pH 6.0, 3 days ice-cooled; read-out: % Residual Activity) stood at 100%. Under “Table 5; stabilizer concentration 50 g/l, pH 6.0, 3 days ice-cooled; read-out: % Residual Activity”, the remaining activity at 50000 µg/mL worked out at 90%.
As to `N#CCC#N` [Malononitrile], the activity at 10 mg (120 h, pH 6.5; read-out: % Residual Activity) was found to be 69%.
With `CC(O)C#N` (stereo not shown) [Lactonitrile], the activity at 10 mg under setting [1] came to 73%.
On to `C=C(C)C#N` [Methacrylonitrile], for which the activity at 10 mg under setting [1] amounted to 80%.
For `O=C(O)CCC(=O)O` [Succinic acid], the activity at 10 mg under setting [3] was found to be 80%.
In the case of `NC(=O)c1cccnc1` [Nicotinamide], the activity at 10 mg under setting [7] was 59%.
As for `O=CC(=O)O` [Glyoxylic acid], under setting [2], the activity at 10 mg came to 88%.
With `N#CCC(=O)O` [Cyanoacetic acid], the activity at 10 mg under setting [1] stood at 69%.
For `N#CCCCCC#N` [Adiponitrile], under setting [1], the activity at 10 mg is 84%.
Regarding `N#Cc1cccnc1` [Nicotinonitrile], the activity at 10 mg under setting [1] turned out to be 73%.
On to `CCCCCC(N)=O` [n-Capronamide], for which, under setting [7], the activity at 10 mg was found to be 88%.
Regarding `CCCC#N` [n-Butyronitrile], the activity at 10 mg under setting [1] was determined as 88%.
Take `N#CCC(N)=O` [Cyanoacetamide]: under setting [1], the activity at 10 mg came to 75%.

The record behind these values is patent publication US4900672A, “Method for preservation of nitrile hydration activity” (Nitto Kagaku Kogyo Kabushiki Kaisha, priority 1986, dated 1990).
